ChEMBL document CHEMBL1201862, “PubChem BioAssay data set” (2004)
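96-well plates; 48 h exposure; 5 concentrations. Endpoints by linear interpolation between flanking doses. Not reached: highest tested concentration assigned. GI50 is the concentration that inhibits growth by half.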 Active and inactive are the calls of the source. Rule as the data show it: active = GI50 up to about 1.1 µM and inactive = higher.

Columns and labels:
Assay in all cases: NCI-60 cell line screen, 48 h
MDA-N = test system: MDA-N
SN12C = test system: SN12C
SF-295 = test system: SF-295
NCI-H23 = test system: NCI-H23
NCI-H226 = test system: NCI-H226
UO-31 = test system: UO-31
M14 = test system: M14
NCI-H460 = test system: NCI-H460
OVCAR-5 = test system: OVCAR-5
ACHN = test system: ACHN
PC-3 = test system: PC-3
SNB-75 = test system: SNB-75
SR = test system: SR
K562 = test system: K562
LOX IMVI = test system: LOX IMVI
DU-145 = test system: DU-145
786-0 = test system: 786-0
TK-10 = test system: TK-10
MDA-MB-231 = test system: MDA-MB-231
A498 = test system: A498

SMILES	GI50 (MDA-N)	GI50 (SN12C)	GI50 (SF-295)	GI50 (NCI-H23)	GI50 (NCI-H226)	GI50 (UO-31)	GI50 (M14)	GI50 (NCI-H460)	GI50 (OVCAR-5)	GI50 (ACHN)	GI50 (PC-3)	GI50 (SNB-75)	GI50 (SR)	GI50 (K562)	GI50 (LOX IMVI)	GI50 (DU-145)	GI50 (786-0)	GI50 (TK-10)	GI50 (MDA-MB-231)	GI50 (A498)
CCOC(=O)CC[C@@H](NC(=O)c1ccc(NCc2ccc3nc(OC)c(OC)nc3c2)cc1)C(=O)OCC	30.1 µM (inactive)	52 µM (inactive)	70.8 µM (inactive)	> 83.2 µM (inactive)	58.7 µM (inactive)	26.5 µM (inactive)	16.3 µM (inactive)	20.6 µM (inactive)	> 100 µM (inactive)	22.3 µM (inactive)	56.8 µM (inactive)	14.5 µM (inactive)	25.1 µM (inactive)	46.8 µM (inactive)	38.9 µM (inactive)	58.2 µM (inactive)	59.4 µM (inactive)	60.5 µM (inactive)	36.1 µM (inactive)	–
CCCCCCN(C(=O)Oc1ccccc1)C(C#N)c1ccccc1 (stereo unspecified)	> 100 µM (inactive)	> 100 µM (inactive)	> 100 µM (inactive)	> 100 µM (inactive)	> 100 µM (inactive)	> 100 µM (inactive)	> 100 µM (inactive)	–	> 100 µM (inactive)	> 100 µM (inactive)	> 100 µM (inactive)	> 100 µM (inactive)	> 100 µM (inactive)	> 100 µM (inactive)	> 100 µM (inactive)	> 100 µM (inactive)	> 100 µM (inactive)	> 100 µM (inactive)	> 100 µM (inactive)	> 100 µM (inactive)
COc1ccccc1C1CC(=O)CC(c2ccccc2OC)C12C(=O)NC(=S)NC2=O (stereo unspecified)	18.2 µM (inactive)	65.8 µM (inactive)	> 100 µM (inactive)	> 100 µM (inactive)	> 100 µM (inactive)	87.9 µM (inactive)	88.3 µM (inactive)	54.5 µM (inactive)	> 100 µM (inactive)	28.2 µM (inactive)	90.6 µM (inactive)	56 µM (inactive)	53.7 µM (inactive)	47.6 µM (inactive)	33.1 µM (inactive)	57.9 µM (inactive)	> 100 µM (inactive)	> 100 µM (inactive)	38.4 µM (inactive)	–
CCOC(=O)C(O)Cc1cnc2ccccc2n1 (stereo unspecified)	> 100 µM (inactive)	> 100 µM (inactive)	–	> 100 µM (inactive)	–	> 100 µM (inactive)	> 100 µM (inactive)	92.3 µM (inactive)	> 100 µM (inactive)	> 100 µM (inactive)	> 100 µM (inactive)	> 100 µM (inactive)	> 100 µM (inactive)	> 100 µM (inactive)	> 100 µM (inactive)	> 100 µM (inactive)	> 100 µM (inactive)	> 100 µM (inactive)	> 100 µM (inactive)	> 100 µM (inactive)
Cc1ccccc1-c1nc2c(N)nc(N)nc2nc1N	4.56 µM (inactive)	6.84 µM (inactive)	12.8 µM (inactive)	4.95 µM (inactive)	–	12 µM (inactive)	> 100 µM (inactive)	3.69 µM (inactive)	39.9 µM (inactive)	5.6 µM (inactive)	4.46 µM (inactive)	22.3 µM (inactive)	62.7 µM (inactive)	0.723 µM (active)	3.44 µM (inactive)	8.17 µM (inactive)	7.23 µM (inactive)	> 100 µM (inactive)	3.3 µM (inactive)	–
O=C(CC(C(=O)c1ccco1)c1cccs1)c1cccs1 (stereo unspecified)	37.6 µM (inactive)	66.8 µM (inactive)	38.8 µM (inactive)	58.5 µM (inactive)	> 100 µM (inactive)	30.7 µM (inactive)	46.6 µM (inactive)	80.5 µM (inactive)	61.4 µM (inactive)	58.7 µM (inactive)	42.5 µM (inactive)	44.4 µM (inactive)	34.6 µM (inactive)	–	37.3 µM (inactive)	> 100 µM (inactive)	> 100 µM (inactive)	> 100 µM (inactive)	> 100 µM (inactive)	96.2 µM (inactive)
NC(=O)N/N=C1/c2ccccc2-n2nccc21	43.1 µM (inactive)	89.9 µM (inactive)	> 100 µM (inactive)	> 100 µM (inactive)	45.5 µM (inactive)	–	71.9 µM (inactive)	45.1 µM (inactive)	> 100 µM (inactive)	43.5 µM (inactive)	> 100 µM (inactive)	28.8 µM (inactive)	39 µM (inactive)	75.7 µM (inactive)	51.3 µM (inactive)	> 100 µM (inactive)	76.6 µM (inactive)	> 100 µM (inactive)	> 100 µM (inactive)	38.7 µM (inactive)
